Experimental data as given in PMC8050083, “Naturally-occurring spinosyn A and its derivatives function as argininosuccinate synthase activator and tumor inhibitor” (Nature Communications, 2021).
Like-named read-outs stand apart in the source and are kept apart here.

How the values were obtained:
[1] = biological target: T1, Argininosuccinate synthase (ASS1) (Homo sapiens, UniProt P00966); assay: SPR (BIAcore X100); also LC-MS/MS of Cys97 adduct, competition with Biotin-SPA, enzyme activation (AC50 […]); type: binding
T1 construct: recombinant human ASS1, N-terminal 6×His tag (pET28a), NM_000050
T1 sequence (P00966 1-412): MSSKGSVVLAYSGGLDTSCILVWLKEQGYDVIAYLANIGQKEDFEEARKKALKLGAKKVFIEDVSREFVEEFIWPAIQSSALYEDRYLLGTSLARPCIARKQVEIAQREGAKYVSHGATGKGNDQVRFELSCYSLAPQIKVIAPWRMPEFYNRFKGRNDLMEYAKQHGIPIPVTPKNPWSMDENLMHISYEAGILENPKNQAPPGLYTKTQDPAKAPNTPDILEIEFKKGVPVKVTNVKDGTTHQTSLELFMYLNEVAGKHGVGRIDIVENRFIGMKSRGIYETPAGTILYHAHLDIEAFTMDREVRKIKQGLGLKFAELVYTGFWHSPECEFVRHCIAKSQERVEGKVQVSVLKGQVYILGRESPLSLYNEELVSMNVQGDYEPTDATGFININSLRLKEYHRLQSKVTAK

[2] = biological target: T1, Argininosuccinate synthase (ASS1); assay: as above; type: binding; remark: listed apart in the source
[3] = in vitro; set-up: crystal violet staining viability/proliferation assay, IC50 (SPSS), LM-2I on breast cancer and normal breast epithelial lines; conditions: human, Mean; mean of 3 repeats; given as IC50
Procedure: (§1) Fig. 1 SPA and its derivative LM-2I inhibit breast cancer proliferation and growth. a Chemical structures of SPA (1). b Crystal violet assay for the effects of SPA on breast cancer cell proliferation. IC50 values were calculated with SPSS 18.0 (mean ± s.d., n = 3 biologically independent experiments). c Representative microscope images of colony formation for different breast cancer cell lines treated with SPA. Scale bars are 40 µM. d Chemical structures of LM-2I (2). e Crystal violet assay for the effects of LM-2I on breast cancer cell proliferation. IC50 values were calculated with SPSS 18.0 (mean ± s.d., n = 3 biologically independent experiments). f Representative microscope images of colony formation for different breast cancer cell lines treated with LM-2I. Scale bars are 40 µM. MDA-MB-231 cells were inoculated subcutaneously into the right flank of nu/nu female mice. When the average tumor size reached about 100 mm^3, mice were treated with ether vehicle, SPA (10 mg/kg/day) or LM-2I (5 mg/kg/day). Tumor sizes (g) and mouse body weight (i) were measured every 2 days. 28 days later, mice were sacrificed and tumors were dissected and weighted (h). Data represent mean ± s.d. (n = 8 mice per group). *P < 0.05, ***P < 0.001, NS: not significant (P > 0.05) from two-tailed unpaired Student’s t tests.Source data are provided as a Source Data file. […]

[4] = system: 184B5; assay: in vitro; set-up: crystal violet staining viability/proliferation assay, IC50 (SPSS), LM-2I on breast cancer and normal breast epithelial lines; conditions: mean of 3 repeats; given as IC50; inhibitor
Procedure: as §1

[5] = system: BT549; assay: cells; set-up: crystal violet staining viability/proliferation assay, IC50 (SPSS), LM-2I on breast cancer and normal breast epithelial lines; conditions: Homo sapiens, BT-549; mean of 3 repeats
Procedure: (§2) Fig. 1 SPA and its derivative LM-2I inhibit breast cancer proliferation and growth. a Chemical structures of SPA (1). b Crystal violet assay for the effects of SPA on breast cancer cell proliferation. IC50 values were calculated with SPSS 18.0 (mean ± s.d., n = 3 biologically independent experiments). c Representative microscope images of colony formation for different breast cancer cell lines treated with SPA. Scale bars are […]. d Chemical structures of LM-2I (2). e Crystal violet assay for the effects of LM-2I on breast cancer cell proliferation. IC50 values were calculated with SPSS 18.0 (mean ± s.d., n = 3 biologically independent experiments). f Representative microscope images of colony formation for different breast cancer cell lines treated with LM-2I. Scale bars are […]. MDA-MB-231 cells were inoculated subcutaneously into the right flank of nu/nu female mice. When the average tumor size reached about 100 mm^3, mice were treated with ether vehicle, SPA (10 mg/kg/day) or LM-2I (5 mg/kg/day). Tumor sizes (g) and mouse body weight (i) were measured every 2 days. 28 days later, mice were sacrificed and tumors were dissected and weighted (h). Data represent mean ± s.d. (n = 8 mice per group). *P < 0.05, ***P < 0.001, NS: not significant (P > 0.05) from two-tailed unpaired Student’s t tests.Source data are provided as a Source Data file. All cell lines were purchased from American Type Culture Collection (ATCC, Manassas, VA, USA). The human breast cancer (BC) cell lines BT549, BT474 and T47D were maintained in RPMI 1640 containing 10% (v/v) fetal bovine serum (FBS, Gibco), 0.01 mg/mL insulin and 100 units/mL penicillin/streptomycin (HyClone). SKBR3, Hs578T, and BT20 human BC cell lines were cultured in DMEM medium with 10% (v/v) FBS and 100 units/mL penicillin/streptomycin. HCC1500, HCC1806, and HCC1937 human BC cell lines were cultured in RPMI 1640 medium supplement with 10% (v/v) FBS and 100 units/mL penicillin/streptomycin. MDA-MB-231 human BC cell line was cultured in DMEM/F12 (1: 1) medium with 10% (v/v) FBS and 100 units/mL penicillin/streptomycin. MDA-MB-468 human BC cell line was cultured in DMEM (high glucose) medium with 10% (v/v) FBS and 100 units/mL penicillin/streptomycin. MCF-7 human BC cell line was cultured in EMEM medium with 10% (v/v) FBS, 0.01 mg/mL insulin and 100 units/mL penicillin/streptomycin. […] All of the cells cultured in a humidified incubator at 37 °C and 5% CO2/95% air (v/v).

[6] = system: HCC1500; assay: cells; set-up: crystal violet staining viability/proliferation assay, IC50 (SPSS), LM-2I on breast cancer and normal breast epithelial lines; conditions: HCC1500; mean of 3 repeats
Procedure: as §2

[7] = system: HCC1937; assay: cells; set-up: crystal violet staining viability/proliferation assay, IC50 (SPSS), LM-2I on breast cancer and normal breast epithelial lines; conditions: Homo sapiens, HCC1937; mean of 3 repeats
Procedure: as §2

[8] = system: MDA-MB-468; assay: cells; set-up: crystal violet staining viability/proliferation assay, IC50 (SPSS), LM-2I on breast cancer and normal breast epithelial lines; conditions: Homo sapiens, MDA-MB-468; mean of 3 repeats
Procedure: as §2

[9] = system: MDA-MB-231; assay: cells; set-up: crystal violet staining viability/proliferation assay, IC50 (SPSS), LM-2I on breast cancer and normal breast epithelial lines; conditions: Homo sapiens, MDA-MB-231; mean of 3 repeats
Procedure: as §2

[10] = system: HCC1806; assay: cells; set-up: crystal violet staining viability/proliferation assay, IC50 (SPSS), LM-2I on breast cancer and normal breast epithelial lines; conditions: Homo sapiens, HCC1806; mean of 3 repeats
Procedure: as §2

[11] = system: BT20; assay: cells; set-up: crystal violet staining viability/proliferation assay, IC50 (SPSS), LM-2I on breast cancer and normal breast epithelial lines; conditions: Homo sapiens, BT-20; mean of 3 repeats
Procedure: as §2

[12] = system: BT474; assay: cells; set-up: crystal violet staining viability/proliferation assay, IC50 (SPSS), LM-2I on breast cancer and normal breast epithelial lines; conditions: Homo sapiens, BT-474; mean of 3 repeats
Procedure: as §2

[13] = system: HS578T; assay: cells; set-up: crystal violet staining viability/proliferation assay, IC50 (SPSS), LM-2I on breast cancer and normal breast epithelial lines; conditions: Homo sapiens, Hs-578T; mean of 3 repeats
Procedure: as §2

[14] = system: SKBR3; assay: cells; set-up: crystal violet staining viability/proliferation assay, IC50 (SPSS), LM-2I on breast cancer and normal breast epithelial lines; conditions: Homo sapiens, SK-BR-3; mean of 3 repeats
Procedure: as §2

[15] = system: MCF-7; assay: cells; set-up: crystal violet staining viability/proliferation assay, IC50 (SPSS), LM-2I on breast cancer and normal breast epithelial lines; conditions: Homo sapiens, MCF7; mean of 3 repeats
Procedure: as §2

[16] = system: T47D; assay: cells; set-up: crystal violet staining viability/proliferation assay, IC50 (SPSS), LM-2I on breast cancer and normal breast epithelial lines; conditions: Homo sapiens, T47D; mean of 3 repeats
Procedure: as §2

[17] = biological target: T1, Argininosuccinate synthase (ASS1); assay: covalent labelling kinetics by streptavidin-HRP blot (kinact […] min^-1); pull-down from MCF-7 lysate; type: binding; conditions: read-out: Ki

Work on CC[C@H]1CCC[C@H](O[C@H]2CC[C@H](N(C)C)[C@@H](C)O2)[C@@H](C)C(=O)C2=C[C@@H]3[C@@H](C=C[C@@H]4C[C@@H](O[C@@H]5O[C@@H](C)[C@H](OC)[C@@H](OC)[C@H]5OC)C[C@@H]34)[C@@H]2CC(=O)O1 [compound 1, spinosyn A] yielded a Kd [1] of 0.358 µM.
In the case of CC[C@H]1CCC[C@H](O[C@H]2CC[C@H](N(C)CC(O)CN3CCNCC3)[C@@H](C)O2)[C@@H](C)C(=O)C2=C[C@@H]3[C@@H](C=C[C@@H]4C[C@@H](O[C@@H]5O[C@@H](C)[C@H](OC)[C@@H](OC)[C@H]5OC)C[C@@H]34)[C@@H]2CC(=O)O1 (some centres unmarked) [compound 2, LM-2I], the Kd [2] is reported as 0.194 µM, the CC50 [3] is reported as 8.52 µM and the CC50 [4] is reported as 7.89 µM. It also gave an IC50 [5] of 1.51 µM, an IC50 [6] of 10 µM and an IC50 [7] of 7.64 µM. The IC50 [8] was 5.11 µM, the IC50 [9] was 1.09 µM and the IC50 [10] was 2.13 µM. For the same compound, the IC50 [11] was 8.22 µM, the IC50 [12] was 6.2 µM and the IC50 [13] was 1.76 µM. The IC50 [14] was 5.12 µM, the IC50 [15] was 5.94 µM and the IC50 [16] was 5.95 µM.
CC[C@H]1CCC[C@H](O[C@H]2CC[C@H](N(C)CCCCCCOC(=O)CCCC[C@@H]3SC[C@@H]4NC(=O)N[C@@H]43)[C@@H](C)O2)[C@@H](C)C(=O)C2=C[C@@H]3[C@@H](C=C[C@@H]4C[C@@H](O[C@@H]5O[C@@H](C)[C@H](OC)[C@@H](OC)[C@H]5OC)C[C@@H]34)[C@@H]2CC(=O)O1 [compound 4, Biotin-SPA] showed a KI (inactivation) [17] of 9.01 µM.
